Results published in article PMC6522912, “Evaluation of the published kinase inhibitor set to identify multiple inhibitors of bacterial ATP-dependent mur ligases” (Journal of Enzyme Inhibition and Medicinal Chemistry, 2019).
Read-outs that look alike come from different tables or passages of the source.

Columns and labels:
E. coli MurD = E. coli MurD (Escherichia coli, UniProt P14900); test: biochemical; settings: for remaining activity at 100 µM: 0.25 h, Table S1, PKIS screening, read-out: RA [%] at 100 µM MurD
Sequence of E. coli MurD (P14900 whole entry): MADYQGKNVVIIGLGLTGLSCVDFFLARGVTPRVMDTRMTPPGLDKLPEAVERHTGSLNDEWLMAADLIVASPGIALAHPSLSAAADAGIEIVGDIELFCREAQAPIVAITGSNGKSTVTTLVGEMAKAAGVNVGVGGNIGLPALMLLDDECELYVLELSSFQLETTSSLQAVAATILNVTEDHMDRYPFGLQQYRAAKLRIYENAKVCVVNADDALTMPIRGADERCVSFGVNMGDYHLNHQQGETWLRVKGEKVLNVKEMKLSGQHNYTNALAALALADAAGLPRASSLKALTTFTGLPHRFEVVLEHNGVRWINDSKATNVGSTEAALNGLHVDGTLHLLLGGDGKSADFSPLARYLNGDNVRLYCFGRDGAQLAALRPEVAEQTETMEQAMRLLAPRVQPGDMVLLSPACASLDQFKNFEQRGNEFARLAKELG
In short: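 Orthophosphate released by E. coli MurD quantified by malachite green (Biomol green) absorbance at 650 nm after 15 min at 37 °C. Residual activity relative to DMSO-only controls.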

E. coli MurC = E. coli MurC (Escherichia coli, UniProt P17952); test: Malachite green inhibition assay, MurC; format: biochemical; settings: for remaining activity at 100 µM: 0.25 h
Sequence of E. coli MurC (P17952 whole entry): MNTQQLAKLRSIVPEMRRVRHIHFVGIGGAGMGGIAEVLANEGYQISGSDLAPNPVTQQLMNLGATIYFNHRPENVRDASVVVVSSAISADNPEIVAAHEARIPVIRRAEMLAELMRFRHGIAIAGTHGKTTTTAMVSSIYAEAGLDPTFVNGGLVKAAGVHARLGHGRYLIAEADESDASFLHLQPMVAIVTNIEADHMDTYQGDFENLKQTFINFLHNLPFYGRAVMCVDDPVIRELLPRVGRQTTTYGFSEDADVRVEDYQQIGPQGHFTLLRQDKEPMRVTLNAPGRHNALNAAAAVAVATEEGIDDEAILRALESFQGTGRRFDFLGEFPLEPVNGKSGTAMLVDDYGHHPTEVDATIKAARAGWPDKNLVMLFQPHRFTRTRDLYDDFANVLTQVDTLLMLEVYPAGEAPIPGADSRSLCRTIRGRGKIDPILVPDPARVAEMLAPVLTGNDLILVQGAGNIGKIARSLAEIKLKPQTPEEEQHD

E. coli MurF = E. coli MurF (Escherichia coli, UniProt P11880); test: biochemical; settings: for remaining activity at 100 µM: 0.25 h, read-out: RA [%] at 100 µM MurF; for remaining activity at 100 µM / RA [%] at 100 µM MurF: Table S1, PKIS screening
Sequence of E. coli MurF (P11880 whole entry): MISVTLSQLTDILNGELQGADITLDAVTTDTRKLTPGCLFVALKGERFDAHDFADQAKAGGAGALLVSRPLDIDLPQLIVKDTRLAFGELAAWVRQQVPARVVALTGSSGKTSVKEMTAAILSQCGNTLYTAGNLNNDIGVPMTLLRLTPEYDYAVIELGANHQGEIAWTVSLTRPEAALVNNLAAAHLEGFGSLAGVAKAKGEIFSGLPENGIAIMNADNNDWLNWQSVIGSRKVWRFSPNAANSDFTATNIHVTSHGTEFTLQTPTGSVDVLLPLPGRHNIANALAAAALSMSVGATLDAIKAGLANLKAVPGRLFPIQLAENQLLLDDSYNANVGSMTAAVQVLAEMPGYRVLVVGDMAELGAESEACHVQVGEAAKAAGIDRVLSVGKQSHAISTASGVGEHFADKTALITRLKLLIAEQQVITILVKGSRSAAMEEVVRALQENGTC

[1] = Table S1, PKIS screening, read-out: RA [%] at 100 µM MurC
[2] = read-out: RA [%] at 100 µM MurC, Table S1, PKIS screening
[3] = Table S3, aza stilbene compounds

| Molecule | remaining activity at 100 µM (E. coli MurD) [%] | remaining activity at 100 µM (E. coli MurC; [1]) [%] | remaining activity at 100 µM (E. coli MurF) [%] | further results |
| --- | --- | --- | --- | --- |
| [O-][S+]1CCN(Cc2ccc(-c3ccc4ncnc(Nc5ccc(OCc6ccccc6)c(Cl)c5)c4c3)o2)CC1 [GW583373A] | 59 | 62 | 60 |  |
| Cc1nnc(-c2cccc(-c3ccc(C(=O)NCC4CC4)cc3)c2)o1 [GW734508X] | 100 | 89 | 74 |  |
| c1cc(-c2cnn3nc(N4CCOCC4)ccc23)nc(NC2CC2)n1 [GW708336X] | 92 | 98 | 98 |  |
| COc1ccc2ncnc(Nc3ccc(OCc4ccccc4)cc3)c2c1 [GI261520A] | 31 | 58 | 81 |  |
| C#Cc1cccc(Nc2ncnc3ccc(OCCCCNCCS(C)(=O)=O)cc23)c1 [GW680191X] | 93 | 75 | 102 |  |
| CS(=O)(=O)CCNCc1nc(-c2ccc3ncnc(Nc4ccc(F)c(Cl)c4)c3c2)cs1 [GW461104A] | 73 | 88 | 84 |  |
| CS(=O)(=O)CCNCc1ccc(-c2ccc3ncnc(Nc4ccc(OCc5ccccc5)c(Br)c4)c3c2)o1 [GW580496A] | 48 | 95 | 90 |  |
| CS(=O)(=O)CCNCc1ccc(-c2ccc3ncnc(Nc4ccc(OCc5ccccc5)c(C(F)(F)F)c4)c3c2)o1 [GW574782A] | 60 | 83 | 100 |  |
| c1cnn2ncc(-c3ccnc(Nc4ccc5c(c4)OCCO5)n3)c2c1 [GW806290X] | 69 | 64 | 71 |  |
| Cc1cc(-c2ccccn2)cc(C)c1/C=C/c1cncc(-c2nn[nH]n2)c1 [GW459057A] | 83 | 59 | 76 |  |
| NC(=O)c1cc(-c2ccncc2)cc(-c2ccccc2)c1N [GSK625137A] | 95 | 65 | 84 |  |
| CNC(=O)c1ncccc1Nc1nc(Nc2cc3c(cc2OC)CCCN3C(=O)CN(C)C)nc2[nH]ccc12 [GSK2220400A] | 84 |  | 81 | remaining activity at 100 µM (E. coli MurC; [2]): 69% |
| Cc1cc(O)cc(C)c1C=Cc1cncc(C(=O)OC(C)(C)C)c1 [Compound 16] |  |  |  | RA (%) MurD (E. coli MurD): 96%; RA (%) MurC (E. coli MurC; [3]): 75%; RA (%) MurF (E. coli MurF; [3]): 69% |
| [O-][S+]1CCN(Cc2ccc(-c3ccc4ncnc(Nc5ccc(OCc6ccccc6)c(F)c5)c4c3)o2)CC1 [GW576924A] | 85 | 39 | 58 |  |
| O=C1Nc2ccccc2/C1=C1\CCc2cc(O)ccc21 [GR105659X] | 100 | 85 | 100 |  |
| COc1cc(N2CCN(C(C)C)CC2)ccc1Nc1nc(Nc2cccc(F)c2C(=O)O)c2cc[nH]c2n1 [GSK1819799A] | 37 | 0 | 39 |  |
| Nc1nonc1-c1nc2cnccc2n1C1CC1 [SB-736302] | 100 | 92 | 77 |  |
| CN1CCC(n2cnc(-c3ccc(F)cc3)c2-c2ccnc(Nc3ccccc3)n2)CC1 [SB-236687] | 90 | 79 | 67 |  |
| CS(=O)(=O)Nc1cccc(-c2ccc3c(NC(=O)C4CC4)n[nH]c3c2)c1 [SB-742864] | 88 | 64 | 99 |  |
| Cc1ccc(NC(=O)c2ccnc(N3CCCC3)c2)cc1-c1ccc(C(=O)NCC2CC2)cc1 [GW769076X] | 56 | 38 | 62 |  |
| COc1ccc(COc2ccc(Cc3cnc(N)nc3N)cc2OC)cc1 [GW632580X] | 89 | 88 | 99 |  |
| O=C(Nc1n[nH]c2cc(-c3ccc(F)cc3)ccc12)C1CC1 [SB-735467] | 75 | 51 | 103 |  |
| COc1ccc(-c2cc(-c3c[nH]nc3-c3ccccn3)ccn2)cc1 [GW679410X#4] |  |  |  | RA [%] at 100 µM MurD (E. coli MurD): 98%; RA [%] at 100 µM MurC (E. coli MurC; Table S1, PKIS screening): 61%; RA [%] at 100 µM MurF (E. coli MurF): 82% |
| CC1=C(C(=O)Nc2cc(Cl)c3[nH]ncc3c2)C(c2ccc(C(F)(F)F)cc2)CC(=O)N1 (stereo not drawn) [GSK466317A] | 99 | 80 | 71 |  |
| Cc1nn(C)c2cc(N(C)c3ccnc(Nc4cccc(S(N)(=O)=O)c4)n3)ccc12 [GW770220A] | 86 | 91 | 74 |  |

| Molecule | remaining activity at 100 µM (E. coli MurD) [%] | remaining activity at 100 µM (E. coli MurC; [1]) [%] | remaining activity at 100 µM (E. coli MurF) [%] | further results |
| --- | --- | --- | --- | --- |
| Nc1ncc(-c2cccc(S(N)(=O)=O)c2)c2scc(-c3ccc(F)c(Cl)c3)c12 [GW856804X] | 75 | 64 | 71 |  |
| COc1cc(Nc2ncc(-c3ccccc3)o2)cc(OC)c1 [GW631581B] | 79 | 64 | 97 |  |
| COC(=O)c1cncc(/C=C/c2c(C)cc(O)cc2C)c1 [GW406731X] | 69 | 98 | 81 |  |
| Fc1ccc(-c2ncn(C3CCNCC3)c2-c2ccnc(Oc3ccccc3)n2)cc1 [SB-239272] | 67 | 100 | 75 |  |
| CCc1ccc(Oc2nccc(-c3c(-c4ccc(F)cc4)ncn3C3CCNCC3)n2)cc1 [SB-242719] | 87 |  | 80 | remaining activity at 100 µM (E. coli MurC; [2]): 51% |
| COc1ccc(-c2coc3ncnc(N)c23)cc1 [GW642125X] | 83 | 100 | 85 |  |
| CCNC(=O)O[C@H]1CN[C@H](C#Cc2cc3ncnc(Nc4ccc(OCc5cccc(F)c5)c(Cl)c4)c3s2)C1 [GSK192082A] | 70 | 39 | 50 |  |
| CS(=O)(=O)Nc1ccc(-c2ccc3c(NC(=O)C4CC4)n[nH]c3c2)cc1 [SB-742865] | 80 | 63 | 92 |  |
| CN1CCC(n2cnc(-c3ccc(F)cc3)c2-c2ccnc(NCCO)n2)CC1 [SB-226879] | 98 |  | 68 | remaining activity at 100 µM (E. coli MurC; [2]): 65% |
| Fc1ccc(-c2ncn(C3CCNCC3)c2-c2ccnc(Oc3ccc(F)c(F)c3)n2)cc1 [SB-253228] | 40 | 32 | 70 |  |
| O=C(Nc1ccc(Oc2ccc3nc(NC(=O)c4ccco4)[nH]c3c2)cc1)Nc1cc(C(F)(F)F)ccc1F [GW683134A] | 86 | 74 | 100 |  |
| COc1cccc(COc2cc(-n3cnc4ccccc43)sc2C(N)=O)c1 [GW804482X] | 79 | 100 | 82 |  |
| N#Cc1cccc(Nc2nccc(-c3cnn4ncccc34)n2)c1 [GW778894X] | 70 | 66 | 68 |  |
| NS(=O)(=O)c1ccc(Nc2ncc(-c3ccccc3)o2)cc1 [GW572399X] | 100 | 80 | 74 |  |
| CNC(=O)c1cncc(/C=C/c2c(Cl)cccc2Cl)c1 [GW445014X] | 80 | 81 | 77 |  |
| COc1cc2ncn(-c3cc(OCc4ccccc4Cl)c(C(N)=O)s3)c2cc1OC [GW852849X] | 81 | 67 | 85 |  |
| NC(=O)c1sc(-n2cnc3ccc(C(F)(F)F)cc32)cc1OCc1ccccc1Br [GW853606X] | 86 | 64 | 75 |  |
| CCOc1ccc2c(-c3ccnc(Nc4cccc(C(F)(F)F)c4)n3)cnn2n1 [GW811761X] | 93 | 64 | 74 |  |
| NC(=O)c1cccc(Nc2nccc(Nc3cccc4[nH]ncc34)n2)c1 [GW782612X] | 92 | 86 | 77 |  |
| CS(=O)(=O)CCNCc1ccc(-c2ccc3ncnc(Nc4ccc(OCc5cccc(F)c5)c(C(F)(F)F)c4)c3c2)o1 [GW576484X] | 55 | 100 | 100 |  |
| NS(=O)(=O)c1ccc(N/N=C2\C(=O)Nc3ccc(C(=O)NCCc4c[nH]cn4)cc32)cc1 [GW300660X] | 90 | 58 | 96 |  |
| SB-739245-AC |  |  |  | RA [%] at 100 µM MurD (E. coli MurD): 99%; RA [%] at 100 µM MurC (E. coli MurC; Table S1, PKIS screening): 61%; RA [%] at 100 µM MurF (E. coli MurF): 95% |
| COC(=O)Nc1nc2ccc(Oc3ccc(NC(=O)Nc4cccc(Br)c4)cc3)cc2[nH]1 [GW694234A] | 86 | 71 | 72 |  |
| Cl.Oc1cccc(-c2nc(-c3ccccc3)[nH]c2-c2ccncc2)c1 [SB-610251-B] |  |  |  | RA [%] at 100 µM MurD (E. coli MurD): 13; RA [%] at 100 µM MurC (E. coli MurC; Table S1, PKIS screening): 74%; RA [%] at 100 µM MurF (E. coli MurF): 96% |
